# Measured values published in patent US20240139214A1, “AGENT FOR SUPPRESSING IL-31 PRODUCTION AND PHARMACEUTICAL COMPOSITION CONTAINING THE SAME” (KYUSHU UNIVERSITY, NATIONAL UNIVERSITY CORPORATION, priority 2021, published 2024).
# Read-outs that look alike come from different tables or passages of the source.
# Experiments:
# mouse IL-31 gene = assay: IL-31 production inhibitory action: IL-31 gene expression by real-time PCR in antigen-stimulated CD4+ T cells from Dock8−/− AND Tg mice; type: cell-based; conditions: for antigen-induced IL-31 gene expression (in words): 2.5 μM, FIG. 2A
# [1] = system: VEGFA expression in human cancer cell line HT1080; assay: Hypoxia-induced VEGFA expression in HT1080; type: cell-based; conditions: HT1080, 1% O2; FIG. 7
# Method: (§1) Human sarcoma cell line HT1080 was provided by Y. Matsumoto (Kyushu University). For hypoxic induction, HT1080 (3×10^5 cells) was cultured in 1% O2 for 12 hours before assays.
# (§2) Total RNA was isolated using ISOGEN (Nippon Gene Co., Ltd.). For amplification by PCR, RNA samples treated with RNase-free DNase I (Thermo Fisher Scientific) were reverse-transcribed with oligo(dT) primers (TFS) and SuperScript III reverse transcriptase (TFS). Real-time PCR was performed in a CFX Connect™ thermal cycler (BIO-RAD) using SYBR Green PCR Master Mix (Thermo Fisher Scientific). The expression of mouse and human target genes was normalized to expression of Hprt and PPIB genes, respectively. CFX Manager software (ver.3.1) supplied with the instrument was used for analysis.
# (§3) (1) Although EPAS1 is known to control hypoxic responses through complex formation with aryl hydrocarbon receptor nuclear translocator (ARNT) (NPL 6), EPAS1-mediated Il31 promoter activation is independent of ARNT (NPL 4). FM19G11 is not a direct inhibitor of EPAS1, but is known to suppress the expression of the EPAS1 gene (Epas1) by acting on an unidentified target (NPL 7). Treatment of human cancer cell line HT1080 with […] suppressed VEGFA expression and GLUT1 expression induced by hypoxia (FIG. 7).
# CD4+ T cells = assay: T cell proliferation assay (PMA and ionomycin, 3H-thymidine incorporation); type: cell-based, mouse; conditions: for effect on non-specific T cell proliferation induced by PMA and ionomycin: FIG. 4
# Method: (§4) A T cell proliferation assay was performed by culturing CD4^+ T cells (5×10^4 cells) with T cell-depleted irradiated spleen cells (1×10^6 cells) in the presence of phorbol 12-myristate 13-acetate (PMA: 100 ng/ml; Sigma-Aldrich) and ionomycin (1 μg/ml; Sigma-Aldrich) for 66 hours. For the last 18 hours of culture, ^3H-thymidine (0.037 MBq) was added, and the incorporated radioactivity was measured with MicroBeta^2 (PerkinElmer, Inc., Waltham, MS).
# as §4, with “hours. Test compounds were added at various final concentrations at the start of culture.” for “hours.”, “MS). […]” for “MS).”
# IL-2 = IL-2 production by SEB-stimulated human CD4+ T cells of AD patients (AlphaLISA); type: cell-based; conditions: SEB stimulation; FIG. 9B
# [2] = Single-dose toxicity study, oral administration; type: in vivo; conditions: 100-mg oral administration
# Method: From these, it is determined that compound 1 is a highly safe compound with low cytotoxicity.
# [3] = system: GLUT1 expression in human cancer cell line HT1080; assay: Hypoxia-induced GLUT1 expression in HT1080; type: cell-based; conditions: HT1080, 1% O2; FIG. 7
# Method: as §1, §2, §3
# IL-4 gene (Il4) = assay: IL-4 gene expression in CD4+ T cells from Dock8−/− AND Tg mice (real-time PCR); type: cell-based, mouse; conditions: 2.5 μM; FIG. 2B
# Method: as §2
# (§5) CD4^+ T cells (3×10^5 cells) from Dock8^−/− AND Tg mice were cultured with T cell-depleted irradiated spleen cells (5×10^6 cells) containing a test compound (2.5 μM) or a vehicle alone (0.1% DMSO), in the presence of MCC88-103 (3 μg/ml) for 24 hours.
# CAG-OVA mice = assay: Scratch behavior measurement in CAG-OVA mice injected with activated CD4+ T cells from Dock8−/− OTII Tg mice; type: in vivo; conditions: oral administration; FIG. 6
# Method: Mice were put into an acrylic cage (11×14×20 cm) for at least 1 hour for acclimation, and their behaviors were videotaped. Playback of the video was used for determination of the total number of scratching bouts per 2 hours. When mice scratch, they stretch their hind paw toward the itchy spot, lean their head toward the hind paw, rapidly move the paw several times, and then lower it back to the floor. A series of these movements was counted as one bout of scratching.
# To investigate whether compound 1 has an itch inhibitory action, mice expressing ovalbumin (OVA) under the control of the cytomegalovirus immediate early enhancer-chicken β-actin hybrid promoter (hereafter referred to as “CAG-OVA mice”) were used. Activated CD4^+ T cells (8.0×10^6 per mouse) from Dock8^−/− OTII Tg mice were stimulated with OVA323-339 (ISQAVHAAHAEINEAGR (SEQ ID NO: 2), 1 μg/ml) for 72 hours and intravenously injected into CAG-OVA mice, and the scratch behavior of the mice was measured 1 hour later. As a result, when the activated CD4^+ T cells were injected into CAG-OVA mice, scratch behavior was induced (see the results of the vehicle in FIG. 6).
# IL-2 gene (Il2) = assay: IL-2 gene expression in CD4+ T cells from Dock8−/− AND Tg mice (real-time PCR); type: cell-based, mouse; conditions: 2.5 μM; FIG. 2B
# Method: as §2, §5
# IL-31 = IL-31 production by SEB-stimulated human CD4+ T cells of AD patients (AlphaLISA); type: cell-based; conditions: SEB stimulation; FIG. 9A
# EPAS1 = target: T1, EPAS1 (Mus musculus, UniProt P97481); assay: Chromatin immunoprecipitation (ChIP) assay: recruitment of EPAS1 to the IL-31 gene promoter region in CD4+ T cells; type: cell-based; conditions: antigen stimulation, 2.5 μM; FIG. 8
# T1 construct: endogenous in cells; host or cells: CD4+ T cells from Dock8-/- AND Tg mice, stimulated with MCC88-103
# Method: A ChIP assay was performed using activated mouse CD4^+ T cells and immortalized MEFs. Briefly, CD4^+ T cells from Dock8^−/− AND Tg mice were stimulated with MCC88-103 in the presence of a test compound (2.5 μM) or a vehicle alone (0.1% DMSO) for 24 hours. Immortalized MEFs were co-transfected with pcDNA-human EPAS1 (2 μg) in the presence of pGL4.10 IL31 (2 μg). Six hours after transfection, the MEFs were suspended in 10% FCS-containing DMEM that contains a test compound (10 μM) or a vehicle alone (0.1% DMSO) for another 24 hours.
# The activated mouse CD4^+ cells and the transfected MEFs were treated with 0.5% formaldehyde at room temperature for 5 minutes and then neutralized with glycine at room temperature for 5 minutes. The resulting cells were washed twice with PBS containing a protease inhibitor, and then nuclei were isolated using a Magna ChIP™ HiSens kit (Millipore, Burlington, MS) according to the manufacturer's protocol. […] After centrifugation at 10,000 g at 4° C. for 10 minutes, the sheared chromatin DNA was obtained and treated with RNase and proteinase K for quantifying DNA content. […]
# Magnetic beads preincubated with rabbit polyclonal IgG (ab171870; Abcam) were used for control studies. […] Eluted DNA and input chromatin DNA were analyzed with a CFX Connect™ thermal cycler (BIO-RAD) using SYBR Green PCR Master Mix (Thermo Fisher Scientific) and the following primers. […]
# [4] = Blood concentration after oral administration; type: in vivo; conditions: 100 mg orally, C57BL/6 mice, monitored 24 hours; FIG. 5
# Method: After compound 1 (100 mg) was orally administered to C57BL/6 mice (n=3), its blood concentration was monitored for 24 hours.
# [5] = system: human IL-31 gene promoter; assay: Luciferase reporter assay of human IL-31 gene promoter in MEFs in the presence of human EPAS1; type: cell-based; conditions: reporter construct (−1,308 to −1) in MEFs
# [6] = Mus musculus, CD4+ T, 24 h, read-out: qPCR results (IL-31 production (%)): based on the case using 0.1% DMSO taken as 100%
# T1 sequence (P97481 whole entry): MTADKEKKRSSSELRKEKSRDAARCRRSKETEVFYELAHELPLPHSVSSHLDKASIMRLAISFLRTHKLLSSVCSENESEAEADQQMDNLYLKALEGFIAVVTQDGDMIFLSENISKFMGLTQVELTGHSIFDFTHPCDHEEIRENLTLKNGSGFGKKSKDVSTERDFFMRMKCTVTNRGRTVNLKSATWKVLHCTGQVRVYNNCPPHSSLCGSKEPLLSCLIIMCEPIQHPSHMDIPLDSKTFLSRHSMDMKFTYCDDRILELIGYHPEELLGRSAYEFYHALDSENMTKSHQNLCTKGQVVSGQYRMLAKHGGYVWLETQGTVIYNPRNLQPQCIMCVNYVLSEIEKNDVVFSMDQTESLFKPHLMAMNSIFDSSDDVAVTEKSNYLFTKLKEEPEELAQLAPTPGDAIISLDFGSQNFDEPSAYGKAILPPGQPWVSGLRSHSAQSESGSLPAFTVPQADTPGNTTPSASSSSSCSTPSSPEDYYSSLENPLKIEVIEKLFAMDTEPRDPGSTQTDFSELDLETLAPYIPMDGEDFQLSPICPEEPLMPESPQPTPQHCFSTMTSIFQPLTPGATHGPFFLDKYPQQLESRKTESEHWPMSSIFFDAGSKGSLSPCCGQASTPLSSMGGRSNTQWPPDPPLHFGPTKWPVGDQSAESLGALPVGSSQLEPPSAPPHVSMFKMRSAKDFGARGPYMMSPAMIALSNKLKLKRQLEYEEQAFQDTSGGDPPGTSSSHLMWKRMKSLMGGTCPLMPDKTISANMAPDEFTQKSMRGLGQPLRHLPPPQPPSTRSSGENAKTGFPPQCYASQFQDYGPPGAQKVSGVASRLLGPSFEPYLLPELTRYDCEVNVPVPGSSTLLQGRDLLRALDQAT
smiles,measurement,setting,value
"CC(C)c1ccc(/C=N/Nc2ccc(C(=O)O)cc2)cc1 [Compound 1, 4-(2-(4-Isopropylbenzylidene)hydrazinyl)benzoic Acid]",antigen-induced IL-31 gene expression (in words),mouse IL-31 gene,significantly inhibited
same,activity at 0.078 µM,mouse IL-31 gene; [6],57.5%
same,activity at 0.156 µM,mouse IL-31 gene; [6],40.1%
same,activity at 0.312 µM,mouse IL-31 gene; [6],38.7%
same,activity at 0.625 µM,mouse IL-31 gene; [6],23.9%
same,activity at 1.25 µM,mouse IL-31 gene; [6],16.4%
same,VEGFA expression induced by hypoxia,[1],did not show such an effect of suppressing expression
same,effect on non-specific T cell proliferation induced by PMA and ionomycin,CD4+ T cells,neither of these compounds had an adverse effect
same,effect on non-specific T-cell proliferation response in vitro,CD4+ T cells; even when used at 50 μM,did not affect
same,IL-2 production by CD4+ T cells of AD patients,IL-2,not affected
same,body weight gain versus non-treated group,[2],did not differ from the non-treated group
same,histological or biochemical abnormalities,[2],no histological or biochemical abnormalities
same,GLUT1 expression induced by hypoxia,[3],did not show such an effect of suppressing expression
same,effect on expression of IL-4 gene,IL-4 gene (Il4),neither of these compounds had an effect
same,scratch behavior (number of scratching bouts during 2 hours),CAG-OVA mice,significantly suppressed
same,effect on expression of IL-2 gene,IL-2 gene (Il2),neither of these compounds had an effect
same,IL-31 production by CD4+ T cells of AD patients,IL-31,reduced IL-31 production in a dose-dependent manner
same,recruitment of EPAS1 to the IL-31 gene promoter region (−1336 to −1042),EPAS1,greatly reduced
same,time after oral administration within which compound was eluted into the blood,[4],≤ 12 h
same,activation of the human IL-31 gene promoter,[5],significantly suppressed
"CC(C)c1ccc(C(=O)Nc2nnc(-c3ccc(C(=O)O)cc3)s2)cc1 [Compound 34, 4-(5-(4-Isopropylbenzamido)-1,3,4-thiadiazol-2-yl)benzoic Acid]",activity at 0.625 µM,"mouse IL-31 gene; Mus musculus, CD4+ T, 24 h, 0.625 μM, read-out: qPCR results (IL-31 production (%)): based on the case using 0.1% DMSO taken as 100%",48.3%
same,activity at 1.25 µM,"mouse IL-31 gene; Mus musculus, CD4+ T, 24 h, 1.25 μM, read-out: qPCR results (IL-31 production (%)): based on the case using 0.1% DMSO taken as 100%",52.3%
same,activity at 10 µM,"CD4+ T cells; Mus musculus, CD4+ T, 66 h, 10 μM, read-out: Cell proliferation (%): based on the case using 0.2% DMSO taken as 100%",79%
same,activity at 20 µM,"CD4+ T cells; Mus musculus, CD4+ T, 66 h, 20 μM, read-out: Cell proliferation (%): based on the case using 0.2% DMSO taken as 100%",90.8%
same,activity at 40 µM,"CD4+ T cells; Mus musculus, CD4+ T, 66 h, 40 μM, read-out: Cell proliferation (%): based on the case using 0.2% DMSO taken as 100%",87.8%
"Cc1ccc(C(=O)COC(=O)c2cccc(NC(=O)c3ccc([N+](=O)[O-])cc3[N+](=O)[O-])c2)cc1 [FM419G11, reference compound]",VEGFA expression induced by hypoxia,[1],suppressed
same,GLUT1 expression induced by hypoxia,[3],suppressed
"CN(C)CCOc1ccc(/C=N/Nc2ccc(C(=O)O)cc2)cc1 [Negative control compound 1, 4-(2-(4-(2-(Dimethylamino)ethoxy)benzylidene)hydrazineyl)benzoic Acid, reference compound]",antigen-induced IL-31 gene expression (in words),mouse IL-31 gene,not inhibited
same,"IL-31 production inhibitory action (in words, discussion of Table 1)",mouse IL-31 gene; relative to compound 1,tended to notably decrease
same,effect on non-specific T cell proliferation induced by PMA and ionomycin,CD4+ T cells,neither of these compounds had an adverse effect
same,effect on expression of IL-4 gene,IL-4 gene (Il4),neither of these compounds had an effect
same,effect on expression of IL-2 gene,IL-2 gene (Il2),neither of these compounds had an effect
